Data: doi:10.1101/843607v1 (biorxiv, 2019)

Biological target: T1, Recombinant Mouse Matriptase (Mus musculus, UniProt P56677)
T1 sequence (P56677 615-855 limits assumed): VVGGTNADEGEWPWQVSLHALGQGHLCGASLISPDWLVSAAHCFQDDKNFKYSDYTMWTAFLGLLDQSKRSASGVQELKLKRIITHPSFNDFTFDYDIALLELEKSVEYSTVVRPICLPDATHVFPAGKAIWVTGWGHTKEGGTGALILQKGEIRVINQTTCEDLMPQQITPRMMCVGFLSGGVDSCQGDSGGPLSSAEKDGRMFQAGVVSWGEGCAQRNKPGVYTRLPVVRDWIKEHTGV
Test: fluorogenic AMC release from Boc-QAC-AMC
Format: biochemical

IC50: 0.86 nM
Structure (SMILES): N=C(N)c1ccc2cc(OC(=O)c3ccc(N=C(N)N)cc3)ccc2c1 [Nafamostat mesilate]
